Assay results from ChEMBL document CHEMBL2429761, “Discovery of ML314, a Brain Penetrant Non-Peptidic β-Arrestin Biased Agonist of the Neurotensin NTR1 Receptor” (ACS Med Chem Lett, 2013).

What was measured:
Mus musculus = assay: Hepatic clearance in C57BL/6J mouse at 2 mg/kg, iv by LC-MS/MS analysis; assay type: ADME, organism-based, Liver; parameters: dose 2 mg/kg, route intravenous; conditions: in vivo
[1] = biological target: G-protein coupled receptor 35 (Homo sapiens, UniProt Q9HC97); assay: Agonist activity at GPR35 (unknown origin) expressed in human U2OS cells coexpressing beta-arrestin by GFP reporter gene assay; assay type: cell-based
Histamine H1 receptor = Histamine H1 receptor (Homo sapiens, UniProt P35367); assay: Binding affinity to histamine H1 receptor (unknown origin)
[2] = biological target: T1, Alpha-1D adrenergic receptor (Homo sapiens) (UniProt P25100); assay: Binding affinity to adrenergic alpha1D receptor (unknown origin) at 10 uM relative to control
T1 sequence (whole entry): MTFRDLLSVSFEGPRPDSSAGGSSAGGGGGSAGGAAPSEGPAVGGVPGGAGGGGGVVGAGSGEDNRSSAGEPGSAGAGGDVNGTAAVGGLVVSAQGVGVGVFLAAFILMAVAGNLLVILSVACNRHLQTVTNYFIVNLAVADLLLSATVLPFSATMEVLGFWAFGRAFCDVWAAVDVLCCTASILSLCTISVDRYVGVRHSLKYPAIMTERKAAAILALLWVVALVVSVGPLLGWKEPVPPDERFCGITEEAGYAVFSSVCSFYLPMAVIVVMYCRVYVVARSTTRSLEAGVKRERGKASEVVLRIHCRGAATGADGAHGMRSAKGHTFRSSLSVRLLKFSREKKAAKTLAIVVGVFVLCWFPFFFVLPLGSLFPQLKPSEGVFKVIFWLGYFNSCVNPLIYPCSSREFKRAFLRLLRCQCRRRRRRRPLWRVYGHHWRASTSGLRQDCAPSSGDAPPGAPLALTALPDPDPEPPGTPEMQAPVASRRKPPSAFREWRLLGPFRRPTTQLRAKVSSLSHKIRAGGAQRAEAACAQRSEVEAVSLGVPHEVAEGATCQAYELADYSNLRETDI

Plasma = assay: Metabolic stability in mouse plasma assessed as compound remaining at 1 uM after 3 hrs by LC-MS/MS analysis; assay type: ADME, cell-free
[3] = Effective permeability of the compound at 50 uM after 30 mins at donor pH 7.4 and acceptor pH 7.4 by PAMPA; assay type: ADME; conditions: pH 7.4, 0.5 h
[4] = Drug uptake in C57BL/6J mouse brain at 10 mg/kg, ip after 1 hr by LC-MS/MS analysis; assay type: ADME, organism-based; parameters: dose 10 mg/kg, route intraperitoneal; conditions: read-out: Drug uptake
[5] = biological target: T2, Alpha-1B adrenergic receptor (Homo sapiens) (UniProt P35368); assay: Binding affinity to adrenergic alpha1B receptor (unknown origin) at 10 uM relative to control
T2 sequence (whole entry): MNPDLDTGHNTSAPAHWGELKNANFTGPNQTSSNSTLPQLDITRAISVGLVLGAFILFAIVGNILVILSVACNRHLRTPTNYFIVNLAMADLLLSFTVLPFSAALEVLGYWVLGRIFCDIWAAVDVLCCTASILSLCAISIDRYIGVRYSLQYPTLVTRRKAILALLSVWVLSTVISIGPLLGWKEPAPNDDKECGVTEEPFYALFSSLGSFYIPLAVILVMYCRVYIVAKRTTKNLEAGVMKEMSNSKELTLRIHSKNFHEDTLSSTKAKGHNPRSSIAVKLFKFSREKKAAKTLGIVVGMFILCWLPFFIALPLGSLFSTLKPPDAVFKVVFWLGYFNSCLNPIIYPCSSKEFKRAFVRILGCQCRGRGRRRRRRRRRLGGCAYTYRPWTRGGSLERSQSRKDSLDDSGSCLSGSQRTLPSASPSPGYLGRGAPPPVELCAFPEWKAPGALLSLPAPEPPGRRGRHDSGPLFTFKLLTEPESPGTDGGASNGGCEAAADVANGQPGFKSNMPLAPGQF

Hepatitis C virus = assay: Antiviral activity against Hepatitis C virus assessed as growth inhibition; assay type: functional, Hepacivirus hominis

Chain of Histamine H1 receptor (P35367 whole entry): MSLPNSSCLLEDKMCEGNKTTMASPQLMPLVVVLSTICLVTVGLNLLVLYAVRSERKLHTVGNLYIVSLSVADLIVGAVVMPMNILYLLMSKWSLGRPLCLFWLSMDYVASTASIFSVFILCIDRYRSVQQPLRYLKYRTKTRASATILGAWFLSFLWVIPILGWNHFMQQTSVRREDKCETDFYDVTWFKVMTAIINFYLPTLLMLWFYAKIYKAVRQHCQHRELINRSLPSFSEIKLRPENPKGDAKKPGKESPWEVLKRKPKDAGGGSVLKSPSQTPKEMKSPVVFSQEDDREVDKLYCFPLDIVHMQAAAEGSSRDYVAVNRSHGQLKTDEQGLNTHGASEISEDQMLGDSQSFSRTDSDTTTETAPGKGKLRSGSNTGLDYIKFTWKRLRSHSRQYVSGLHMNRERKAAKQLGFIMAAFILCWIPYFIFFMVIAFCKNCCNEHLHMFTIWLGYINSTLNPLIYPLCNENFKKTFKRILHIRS
Chain of G-protein coupled receptor 35 (Q9HC97 whole entry): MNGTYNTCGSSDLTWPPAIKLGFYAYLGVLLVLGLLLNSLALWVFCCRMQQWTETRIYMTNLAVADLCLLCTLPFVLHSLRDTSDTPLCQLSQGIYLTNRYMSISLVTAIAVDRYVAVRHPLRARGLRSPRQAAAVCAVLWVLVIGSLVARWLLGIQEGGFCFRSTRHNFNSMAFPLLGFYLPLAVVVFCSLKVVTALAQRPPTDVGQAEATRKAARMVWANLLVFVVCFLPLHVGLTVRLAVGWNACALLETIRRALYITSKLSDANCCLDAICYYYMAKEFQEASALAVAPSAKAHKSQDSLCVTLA

## COc1cc2nc(C3CC3)nc(N3CCN(c4ccccc4OC)CC3)c2cc1OC
Mus musculus
  CLH: 81 mL/min/kg
[1]
  EC50: > 40000 nM
Histamine H1 receptor
  Ki: 1420 nM
[2]
  Activity: 63%
Plasma
  Stability: 99.6%
[3]
  Peff: 2090 ×10⁻⁶ cm/s
[4]
  concentration at 1 h: 924 ng/mL
[5]
  Activity: 63%
Hepatitis C virus
  GI: 3.16 µM
